In patent US9546401B2, “Assays and methods for selecting a treatment regimen for a subject with depression” (The General Hospital Corporation, priority 2011, dated 2017):
Where two headings read alike, the source gives them in different places.

Test system: MDD patients carrying the indicated SNP
Description: The term “prevalence” as used in FIG. 8B refers to the total percentage of MDD patients who carry the SNP as indicated in this particular study.

[1] = CACNA1C rs1006737 (AG), genotype code 13
[2] = COMT (Val 158 Met) rs4680 (GG), genotype code 33
[3] = COMT (Val 158 rs4633 (CC), genotype code 22)
[4] = DAT (SLC6A3) rs250682 (CG), genotype code 33
[5] = DNMT3B rs1883729 (AG), genotype code 11/13
[6] = DNMT3B rs1883729 (AG), genotype code 11
[7] = DNMT3B rs1883729 (AG), genotype code 13
[8] = DRD2 (H313H) rs6275 (TT), genotype code 11
[9] = DRD2 (SLC26A9) rs11240594 (AG), genotype code 33
[10] = DRD2 (Taq1Br) rs1079596 (TC), genotype code 42/44
[11] = DRD2 (Taq1Br) rs1079596 (TC), genotype code 42
[12] = FDRC rs2277820 (TC), genotype code 22
[13] = GCH1 rs8007267 (TC), genotype code 42
[14] = GCHFR rs7163862 (TA), genotype code 41
[15] = GCPH or FOLH1 rs202676 (AG), genotype code 31
[16] = MTHFD 1 G1958A (R653Q) rs2236225 (AG), genotype code 33
[17] = MTHFR G1793A rs2274976 (GA), genotype code 42
[18] = PCYT1A rs7639752 (AA), genotype code 11
[19] = RCF1 (in SLC19A1) rs1051266 (AA), genotype code 44
[20] = RCF1 A > G rs2297291 (AA), genotype code 11
[21] = RCF2 (in SLC19A1) rs12659 (TT), genotype code 11

Structure (SMILES): CN1c2c(nc(N)[nH]c2=O)NC[C@@H]1CNc1ccc(C(=O)N[C@@H](CCC(=O)O)C(=O)O)cc1 [6(S)-5-MTHF, 6(S)-5-methyltetrahydrofolate]
- PHASE I EFFFCT, change in HAMD-28 [1]: −8.006
- PHASE II EFFFCT, change in HAMD-28 [1]: −2.467
- POOLED PHASES EFFFCT, change in HAMD-28 [1]: −4.633
- PHASE II EFFFCT, change in HAMD-28 [2]: −10.170
- PHASE I EFFFCT, change in HAMD-28 (COMT (Val 158 Met) rs4680 (GG), genotype code 33, folate-containing compound + SSRI): −12.070
- POOLED PHASES EFFFCT, change in HAMD-28 [2]: −10.880
- PHASE I EFFFCT, change in HAMD-28 [3]: −10.070
- PHASE II EFFFCT, change in HAMD-28 [3]: −10.170
- POOLED PHASES EFFFCT, change in HAMD-28 [3]: −9.240
- PHASE I EFFFCT, change in HAMD-28 [4]: −5.722
- PHASE II EFFFCT, change in HAMD-28 [4]: −5.768
- POOLED PHASES EFFFCT, change in HAMD-28 [4]: −4.996
- PHASE I EFFFCT, change in HAMD-28 [5]: −6.340
- PHASE II EFFFCT, change in HAMD-28 [5]: −4.940
- POOLED PHASES EFFFCT, change in HAMD-28 [5]: −5.360
- PHASE I EFFFCT, change in HAMD-28 [6]: −2.318
- PHASE II EFFFCT, change in HAMD-28 [6]: −5.267
- POOLED PHASES EFFFCT, change in HAMD-28 [6]: −4.811
- PHASE I EFFFCT, change in HAMD-28 [7]: −8.097
- PHASE II EFFFCT, change in HAMD-28 [7]: −4.667
- POOLED PHASES EFFFCT, change in HAMD-28 [7]: −6.748
- PHASE I EFFFCT, change in HAMD-28 [8]: −16.560
- PHASE II EFFFCT, change in HAMD-28 [8]: 1.667
- POOLED PHASES EFFFCT, change in HAMD-28 [8]: −7.627
- PHASE I EFFFCT, change in HAMD-28 [9]: −5.018
- PHASE II EFFFCT, change in HAMD-28 [9]: −3.424
- POOLED PHASES EFFFCT, change in HAMD-28 [9]: −3.758
- PHASE I EFFFCT, change in HAMD-28 [10]: −10.640
- PHASE II EFFFCT, change in HAMD-28 [10]: −3.893
- POOLED PHASES EFFFCT, change in HAMD-28 [10]: −6.903
- PHASE I EFFFCT, change in HAMD-28 [11]: −10.640
- PHASE II EFFFCT, change in HAMD-28 [11]: −3.893
- POOLED PHASES EFFFCT, change in HAMD-28 [11]: −6.903
- PHASE I EFFFCT, change in HAMD-28 [12]: −2.634
- PHASE II EFFFCT, change in HAMD-28 [12]: −6.232
- POOLED PHASES EFFFCT, change in HAMD-28 [12]: −4.027
- PHASE I EFFFCT, change in HAMD-28 [13]: −7.729
- PHASE II EFFFCT, change in HAMD-28 [13]: −5.417
- POOLED PHASES EFFFCT, change in HAMD-28 [13]: −6.654
- PHASE I EFFFCT, change in HAMD-28 [14]: −6.280
- PHASE II EFFFCT, change in HAMD-28 [14]: −4.542
- POOLED PHASES EFFFCT, change in HAMD-28 [14]: −4.863
- PHASE I EFFFCT, change in HAMD-28 [15]: −7.314
- PHASE II EFFFCT, change in HAMD-28 [15]: −3.300
- POOLED PHASES EFFFCT, change in HAMD-28 [15]: −5.402
- PHASE I EFFFCT, change in HAMD-28 [16]: −2.742
- PHASE II EFFFCT, change in HAMD-28 [16]: −3.762
- POOLED PHASES EFFFCT, change in HAMD-28 [16]: −3.496
- PHASE I EFFFCT, change in HAMD-28 [17]: −5.333
- PHASE II EFFFCT, change in HAMD-28 [17]: 2.833
- POOLED PHASES EFFFCT, change in HAMD-28 [17]: −5.551
- PHASE I EFFFCT, change in HAMD-28 [18]: −10.400
- PHASE II EFFFCT, change in HAMD-28 [18]: −3.900
- POOLED PHASES EFFFCT, change in HAMD-28 [18]: −6.716
- PHASE I EFFFCT, change in HAMD-28 [19]: −10.000
- PHASE II EFFFCT, change in HAMD-28 [19]: −2.750
- POOLED PHASES EFFFCT, change in HAMD-28 [19]: −7.673
- PHASE I EFFFCT, change in HAMD-28 [20]: −8.778
- PHASE II EFFFCT, change in HAMD-28 [20]: −1.400
- POOLED PHASES EFFFCT, change in HAMD-28 [20]: −5.458
- PHASE I EFFFCT, change in HAMD-28 [21]: −7.571
- PHASE II EFFFCT, change in HAMD-28 [21]: −1.400
- POOLED PHASES EFFFCT, change in HAMD-28 [21]: −4.860
